Test results as given in paper PMC12675575, “A BRET biosensor for measuring uncompetitive engagement of PRMT5 complexes in cells” (Nature Communications, 2025).
Values joined by “and” are separate entries in the source; they are usually repeats but may differ in a detail not shown here. Equal values may be shown once.

How the values were obtained:
[1] = molecular target: NanoLuc-PRMT5 co-expressed with WDR77 (Homo sapiens, UniProt O14744); assay: Live-cell NanoBRET target engagement with BRET probe CBH-002 in HEK293 cells expressing NanoLuc-PRMT5 and unlabeled WDR77; format: cell-based; parameters: host or cells: HEK293; key to BRET, CBH-002 + DMSO / BRET, CBH-002 + GSK3326595: mBRET units = acceptor/donor BRET ratio × 1000; conditions: for BRET, CBH-002 + DMSO / BRET, CBH-002 + GSK3326595: log([CBH-002]); for BRET, CBH-002 + GSK3326595: 10 µM GSK3326595
Description: HEK293 cells (ATCC) were cultured in DMEM (Thermo Fisher) + 10% (v/v) FBS (Seredigm), and HCT116 cells (Horizon Discovery, #PAR-034 and #R02-033) were cultured in McCoy’s 5A (Thermo Fisher) + 10% FBS, with incubation in a humidified, 37 °C/5% CO2 incubator. Cells were split 1–3 days prior to performing experiments and used at roughly 80% confluency. […] Cells were transfected according to the manufacturer’s protocol using FuGENE HD (Promega). NanoLuc fusion DNA was diluted into Transfection Carrier DNA (Promega) in Opti-MEM at a ratio of 1:9 (mass/mass), and FuGENE HD was added at a ratio of 1:3 (μg DNA:μL lipid). […] Formed complexes were combined with cells resuspended to a density of 2 × 10^5 cells/mL in Opti-MEM + 1% FBS at a ratio of 1:20 (vol:vol). […] Cells were seeded at a density of 2 × 10^5 cells/mL in Opti-MEM + 1% FBS in 100 μL (96-well). The BRET probe CBH-002 was prepared first as a 100× stock in 100% DMSO (Sigma) and then diluted to a 20× stock in NanoBRET Tracer Dilution buffer (Promega). Test compounds were prepared as 1000× stocks in 100% DMSO and diluted to 10× stocks in Opti-MEM to prepare working stocks. […] NanoBRET Complete 3x Substrate was prepared by combining Nano-Glo Substrate and Extracellular NanoLuc Inhibitor in Opti-MEM, according to the manufacturer’s protocol (Promega).
BRET ratio values were calculated by dividing the acceptor by the donor signal, and raw BRET was converted to milli-BRET (mBRET) units (mBu) by multiplying by 1000.
EC50 values were obtained by fitting the BRET probe and compound affinity curves to a sigmoidal four-parameter fit model in Graphpad Prism:1 Y=Ymin+Ymax−Ymin/1+10^LogEC50−Xh where h is the Hill Slope.
When normalized BRET was used, mBRET values were normalized using2 NormalizedBRET%=(Y−BRETmin)/BRETmax−BRETmin where y = mBRET in the presence of test compound and BRET probe, BRETmin = mBRET at the highest concentration (saturating) of test compound and BRET probe, and BRETmax = mBRET in the presence of vehicle (DMSO) and BRET probe.
Normalized concentration-response curves showing full competition were fit using a 2-parameter model:3 Y=100/1+10^LogEC50−Xh
In situations where only partial competition was observed, the normalized concentration-response curves were fit using Eq. 1 and where Ymin was constrained to >0.

NLuc-PRMT5 = NLuc-PRMT5 (Homo sapiens, UniProt O14744); assay: SAM titration against CBH-002 in HEK293 cell lysate (linear range of SAM detection); format: binding; parameters: host or cells: HEK293 (live cells; digitonin lysate for the SAM titration); conditions: for EC50: Figure S3B; for BRET signal, CBH-002 titration (Figure S3A): Log[CBH-002]
Description: To determine the linear range of SAM detection, HEK293 cells expressing NLuc-PRMT5 were lysed by addition of a 10x digitonin solution (Sigma), 500 µg/mL in Opti-MEM) and treated with a 1 mM, 4-fold, 11 pt dose-response series of SAM (Sigma) and a 1 µM 2-fold, 8 pt dose-response series of CBH-002. Lysate was incubated at RT for 30 min prior to reading BRET. Data was normalized using Eq. (2) above, with BRETMIN = BRET signal at lowest [CBH-002] + 0 µM SAM, and BRETMAX = BRET signal at 1 µM CBH-002 + 1 mM SAM. Data were fit using Eq. (3), and CBH-002 EC50 was plotted against [SAM] to determine the linear range of detection.

NLuc-PRMT5, sequence (O14744 whole entry): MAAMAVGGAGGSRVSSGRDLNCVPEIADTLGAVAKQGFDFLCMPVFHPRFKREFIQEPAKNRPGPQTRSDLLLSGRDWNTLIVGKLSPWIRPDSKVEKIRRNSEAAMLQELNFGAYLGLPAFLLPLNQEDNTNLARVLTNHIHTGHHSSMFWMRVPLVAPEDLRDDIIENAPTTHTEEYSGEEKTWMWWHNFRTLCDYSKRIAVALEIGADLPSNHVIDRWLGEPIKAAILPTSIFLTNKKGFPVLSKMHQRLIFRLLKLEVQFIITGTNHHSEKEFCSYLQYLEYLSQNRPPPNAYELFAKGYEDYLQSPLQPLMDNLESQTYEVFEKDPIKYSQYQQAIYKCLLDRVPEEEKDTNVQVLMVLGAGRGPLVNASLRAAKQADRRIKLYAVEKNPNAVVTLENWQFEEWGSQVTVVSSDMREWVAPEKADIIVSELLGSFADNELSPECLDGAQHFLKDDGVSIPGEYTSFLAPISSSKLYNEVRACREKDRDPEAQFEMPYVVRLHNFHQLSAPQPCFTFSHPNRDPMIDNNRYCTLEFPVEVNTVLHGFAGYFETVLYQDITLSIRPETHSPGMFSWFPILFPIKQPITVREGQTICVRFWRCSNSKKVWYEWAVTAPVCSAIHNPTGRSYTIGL
NLuc-PRMT5, sequence (Q9BQA1 whole entry partner): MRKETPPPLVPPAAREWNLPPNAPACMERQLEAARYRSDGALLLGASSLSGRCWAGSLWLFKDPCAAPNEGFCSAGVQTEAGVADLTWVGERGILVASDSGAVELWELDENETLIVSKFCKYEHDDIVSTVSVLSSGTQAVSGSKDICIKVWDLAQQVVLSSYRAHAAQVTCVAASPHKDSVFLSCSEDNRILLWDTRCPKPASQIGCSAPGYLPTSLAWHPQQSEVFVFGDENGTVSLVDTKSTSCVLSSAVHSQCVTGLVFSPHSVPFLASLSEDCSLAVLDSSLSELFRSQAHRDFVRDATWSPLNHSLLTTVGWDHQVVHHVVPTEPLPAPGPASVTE
NanoLuc-PRMT5 co-expressed with WDR77, sequence (O14744 whole entry): as the sequence (O14744 whole entry) above
NanoLuc-PRMT5 co-expressed with WDR77, sequence (Q9BQA1 whole entry partner): as the sequence (Q9BQA1 whole entry partner) above

Structure (SMILES): O=C(CCc1ccc2n1[B-](F)(F)[N+]1=C(c3ccc[nH]3)C=CC1=C2)NCCCCC(=O)N1CCC(Nc2cc(C(=O)NC[C@H](O)CN3CCc4ccccc4C3)ncn2)CC1 [CBH-002]
- BRET, CBH-002 + DMSO ([1]; uM 0.00): 772.09 and 714.74 and 694.22
- BRET, CBH-002 + GSK3326595 ([1]; uM 0.00): 61.04 and 53.68 and 50.91
- BRET, CBH-002 + DMSO ([1]; uM -0.30): 762.09 and 706.06 and 687.42
- BRET, CBH-002 + GSK3326595 ([1]; uM -0.30): 39.10 and 34.12 and 31.58
- BRET, CBH-002 + DMSO ([1]; uM -0.60): 725.23 and 680.05 and 663.94
- BRET, CBH-002 + GSK3326595 ([1]; uM -0.60): 21.81 and 20.23 and 18.49
- BRET, CBH-002 + DMSO ([1]; uM -0.90): 664.14 and 629.71 and 617.88
- BRET, CBH-002 + GSK3326595 ([1]; uM -0.90): 15.32 and 14.57 and 13.57
- BRET, CBH-002 + DMSO ([1]; uM -1.20): 530.53 and 496.08 and 504.63
- BRET, CBH-002 + GSK3326595 ([1]; uM -1.20): 11.35 and 11.22 and 10.54
- BRET, CBH-002 + DMSO ([1]; uM -1.51): 359.70 and 340.31 and 361.19
- BRET, CBH-002 + GSK3326595 ([1]; uM -1.51): 9.43 and 9.45 and 8.97
- BRET, CBH-002 + DMSO ([1]; uM -1.81): 238.28 and 223.48 and 233.43
- BRET, CBH-002 + GSK3326595 ([1]; uM -1.81): 8.65 and 8.75 and 8.42
- BRET, CBH-002 + DMSO ([1]; uM -2.11): 126.25 and 118.03 and 125.67
- BRET, CBH-002 + GSK3326595 ([1]; uM -2.11): 8.17 and 8.22 and 7.93
- BRET, CBH-002 + DMSO ([1]; uM -2.41): 70.04 and 65.87 and 70.86
- BRET, CBH-002 + GSK3326595 ([1]; uM -2.41): 7.94 and 8.15 and 7.70
- BRET, CBH-002 + DMSO ([1]; uM -2.71): 39.89 and 37.62 and 39.62
- BRET, CBH-002 + GSK3326595 ([1]; uM -2.71): 7.74 and 7.94 and 7.67
- BRET, CBH-002 + DMSO ([1]; uM -3.01): 23.90 and 22.68 and 24.07
- BRET, CBH-002 + GSK3326595 ([1]; uM -3.01): 7.80 and 7.76 and 7.50
- EC50 ([1]; probe titration against 10 µM GSK3326595 or DMSO, live HEK293, WDR77 co-expression, read-out: CBH-002 apparent affinity (EC50)): 33 nM
- EC50 (NLuc-PRMT5; CBH-002 EC50 at [SAM] 0 uM): 1070 nM
- EC50 (NLuc-PRMT5; CBH-002 EC50 at [SAM] 0.001 uM): 1220 nM
- EC50 (NLuc-PRMT5; CBH-002 EC50 at [SAM] 0.004 uM): 722 nM
- EC50 (NLuc-PRMT5; CBH-002 EC50 at [SAM] 0.06 uM): 232 nM
- EC50 (NLuc-PRMT5; CBH-002 EC50 at [SAM] 250 uM): 10 nM
- EC50 (NLuc-PRMT5; CBH-002 EC50 at [SAM] 1000 uM): 10 nM
- BRET signal, CBH-002 titration (Figure S3A) (NLuc-PRMT5; uM 0.00, [SAM] 0 uM): 59.75 and 46.60 and 39.12
- BRET signal, CBH-002 titration (Figure S3A) (NLuc-PRMT5; uM 0.00, [SAM] 0.001 uM): 52.48 and 47.57 and 38.98
- BRET signal, CBH-002 titration (Figure S3A) (NLuc-PRMT5; uM 0.00, [SAM] 0.004 uM): 78.50 and 49.28 and 41.20
- BRET signal, CBH-002 titration (Figure S3A) (NLuc-PRMT5; uM 0.00, [SAM] 0.06 uM): 102.12 and 63.12 and 56.12
- BRET signal, CBH-002 titration (Figure S3A) (NLuc-PRMT5; uM 0.00, [SAM] 250 uM): 116.71 and 100.65 and 98.69
- BRET signal, CBH-002 titration (Figure S3A) (NLuc-PRMT5; uM 0.00, [SAM] 1000 uM): 100.00
- BRET signal, CBH-002 titration (Figure S3A) (NLuc-PRMT5; uM -0.60, [SAM] 0 uM): 35.92 and 26.69 and 20.78
- BRET signal, CBH-002 titration (Figure S3A) (NLuc-PRMT5; uM -0.60, [SAM] 0.001 uM): 38.65 and 26.89 and 21.61
- BRET signal, CBH-002 titration (Figure S3A) (NLuc-PRMT5; uM -0.60, [SAM] 0.004 uM): 42.58 and 27.46 and 22.13
- BRET signal, CBH-002 titration (Figure S3A) (NLuc-PRMT5; uM -0.60, [SAM] 250 uM): 110.40 and 94.49 and 89.50
- BRET signal, CBH-002 titration (Figure S3A) (NLuc-PRMT5; uM -0.60, [SAM] 1000 uM): 106.63 and 91.94 and 90.40
- BRET signal, CBH-002 titration (Figure S3A) (NLuc-PRMT5; uM -1.20, [SAM] 0 uM): 18.29 and 13.11 and 9.32
- BRET signal, CBH-002 titration (Figure S3A) (NLuc-PRMT5; uM -1.20, [SAM] 250 uM): 100.06 and 80.70 and 74.62
- BRET signal, CBH-002 titration (Figure S3A) (NLuc-PRMT5; uM -1.20, [SAM] 1000 uM): 101.04 and 80.00 and 77.33
- BRET signal, CBH-002 titration (Figure S3A) (NLuc-PRMT5; uM -1.81, [SAM] 250 uM): 80.32 and 48.77 and 48.32
- BRET signal, CBH-002 titration (Figure S3A) (NLuc-PRMT5; uM -1.81, [SAM] 1000 uM): 90.24 and 46.55 and 49.90
